Measurements from PMC5601738, “Facile total synthesis of lysicamine and the anticancer activities of the Ru^II, Rh^III, Mn^II and Zn^II complexes of lysicamine” (Oncotarget, 2017).
Values joined by “and” are separate entries in the source; they are usually repeats but may differ in a detail not shown here. Equal entries are not always repeated. Where two headings read alike, the source gives them in different places.

How the values were obtained:
[1] = system: BEL-7404; experiment: MTT assay, BEL-7404 cells; format: cell-based, human; settings: 48 h; for IC50: MTT, mean ± SD from five independent experiments
[2] = system: NCI-H460; experiment: MTT assay, NCI-H460 cells; format: cell-based, human; settings: 48 h; for IC50: MTT, mean ± SD from five independent experiments
[3] = system: T-24; experiment: MTT assay, T-24 cells; format: cell-based, human; settings: 48 h; for IC50: MTT, mean ± SD from five independent experiments
[4] = system: HL-7702 normal liver cell; experiment: MTT assay, HL-7702 normal liver cell; format: cell-based; settings: 48 h; for IC50: MTT, mean ± SD from five independent experiments
[5] = system: HepG2 xenograft; experiment: HepG2 xenograft model
[6] = system: HepG2; experiment: MTT assay, HepG2 cells; settings: for IC50: read-out: IC50 HepG2
[7] = system: HepG2 cells; experiment: Cell cycle analysis by flow cytometry; format: cell-based, human; settings: HepG2, 24 h
[8] = system: ct-DNA; experiment: CD absorption spectrometry assay with ct-DNA; format: binding; settings: ct-DNA 1×10^−4 M, [DNA]/[compound] 10:0.5 to 10:2.0
[9] = system: pBR322 plasmid DNA; experiment: Agarose gel electrophoresis assay with pBR322 plasmid DNA; format: biochemical; settings: pBR322 0.5 μg/μL, TBE buffer pH=8.5, 10 to 100 μM
Description: The DNA cleavage activity of 2, 3 and LY were tested by agarose gel electrophoresis assay using pBR322 plasmid DNA (0.5 μg/μL) in TBE buffer (pH=8.5). […] In contrast, under the same experimental conditions, when the concentration of 2 increased from 10 μM to 50 μM, the mobility of supercoiled DNA (form I) was reduced, but the relaxed form (form II) was not observed. When the concentration of 2 increased further to 70 μM, the form II DNA appeared. Almost all supercoiled DNA (form I) changed to relaxed DNA (form II) when the concentration of 2 reached 90 and 100 μM.
RT-qPCR was performed. The threshold cycle (Ct) values approval no. SCXK 2014-0002 and SYXK 2014-0003), […]
were housed at a sterile environment with conditions of […]
than 3 days before used. Complexes and LYwere all […]
is limited in 1% in final working solutions. KM mice. The large concentration of 2 in 10% (v/v) […]
ct-DNA CD spectrum as control.
The HepG2 xenograft mice were induced by
37 °C in the dark for 4 h.
The percent weight loss or gain was calculated […]
imaging system under a UV-Vis transilluminator.. Percent tumour growth inhibition after initiation of treatment with 2 and cisplatin were calculated by TGI= […]
initial for control group).
Animals were supplied by Guangxi Medical
University Laboratory Animal Centre (Guangxi, China, […]

[10] = metal salts 1× 10-4 mol/L, 48 h

| SMILES | inhibitive ratio BEL-7404 ([1]; 20 μmol/L) | inhibitive ratio NCI-H460 ([2]; 20 μmol/L) | inhibitive ratio T-24 ([3]; 20 μmol/L) | inhibitive ratio HL-7702 ([4]; 20 μmol/L, normal liver cell) | inhibitive ratio Hep-G2 ([6]; 20 μmol/L, 48 h) | inhibitive ratio BEL-7404 ([1]; metal salts 1× 10-4 mol/L) | inhibitive ratio NCI-H460 ([2]; metal salts 1× 10-4 mol/L) | inhibitive ratio T-24 ([3]; metal salts 1× 10-4 mol/L) | inhibitive ratio HL-7702 ([4]; metal salts 1× 10-4 mol/L) | inhibitive ratio Hep-G2 [6, 10] | also measured |
| --- | --- | --- | --- | --- | --- | --- | --- | --- | --- | --- | --- |
| N.N.[Cl][Pt][Cl] [Cisplatin, cisplatin, reference compound] | 55.15±1.18% | 53.88±1.29% | 47.58±2.05% | 68.95±1.42% and 68.9% | 60.63±0.99% |  |  |  |  |  | IC50 [1]: 12.4 ± 0.38 µM; IC50 [2]: 18.3 ± 1.02 µM; IC50 [3]: 28.1 ± 1.88 µM; IC50 ([4]; normal liver cell): 15.7 ± 1.27 µM; BW% (body weight change) ([5]; 2.0 mg/kg per 2 days): -25.8%; loss in body weight ([5]; 2.0 mg/kg per 2 days): 25.8%; TGI ([5]; 2.0 mg/kg per 2 days i.p.): 83.16%; IC50 ([6]; MTT, 48 h, mean ± SD from five independent experiments): 18.5 ± 0.78 µM |
| COc1cc2ccnc3c2c(c1OC)-c1ccccc1C3=O [LY, lysicamine] | 32.27±1.73% | 52.85±0.32% | 42.40±2.14% | 45.49±0.78% and 45.5% | 53.13±1.19% |  |  |  |  |  | IC50 ([1]; Homo sapiens, BEL-7404): 47.5 ± 1.65 µM; IC50 ([2]; Homo sapiens, NCI-H460): 19.14 ± 0.18 µM; IC50 ([3]; Homo sapiens, T-24): 34.5 ± 1.96 µM; IC50 ([4]; Homo sapiens, L02, normal liver cell): 29.3 ± 0.72 µM; effect on cell cycle progression [7]: only blocked the cell cycle in the G1 phase; change of CD spectrum of ct-DNA / binding [8]: the binding was weak; DNA cleavage activity on supercoiled pBR322 DNA [9]: did not change the supercoiled DNA and its migration rate; IC50 ([6]; Homo sapiens, HepG2, 48 h): 23.9 ± 0.41 µM |
| O.O.O.O.O.O.[Mn+2].[O-][Cl+3]([O-])([O-])[O-].[O-][Cl+3]([O-])([O-])[O-] [Mn(ClO4)2·6H2O, reference compound] |  |  |  |  |  | 25.84±1.36% | 30.12±0.46% | 24.08±1.86% | 23.06±1.64% | 18.52±0.67% |  |
| O.O.O.[Cl][Rh]([Cl])[Cl] [RhCl3·3H2O, reference compound] |  |  |  |  |  | 35.29±0.97% | 25.41±1.25% | 27.09±1.11% | 30.12±1.57% | 24.02±1.02% |  |
